Tested on: retinal pigmented epithelium (RPE) wild-type (WT) cells
Test: Effect of calcium and red-light irradiation on NO levels (DAF-FM DA integrated fluorescence)
Assay type: cell-based
Description: In this experiment, the influence of Ca^2+ on nitric oxide (NO) levels was determined by measuring the integrated fluorescence of the reaction product of NO with diaminofluorescein-FM diacetate (DAF-FM DA, C25H18F2N2O7).
Procedurally, the experiment was carried out using a 96 well plate, with either ionic calcium (Ca^2+) or encapsulated calcium (CaCD) added to each of the wells. The concentration of calcium in the wells as CaCl2 was 1.67 mM, and the concentration as CaCD was 2.79 mM stock (or 5 μM final concentration), in a total volume of 300 μL in each well. The number of RPE-WT cells was approximately 175,000 per well. Two reference samples for CaCl2 and CaCD were used to compare relative changes upon exposure to red-light in the presence of Ca^2+. The RPE cells were incubated with DAF-FM DA for 30 minutes at 37 degrees C. and the fluorescence was immediately measured (as time-point 0 minutes) to obtain a ‘background’ baseline.

Structure (SMILES): [Ca+2].[Cl-].[Cl-] [Ca, CaCl2]
- Intensity (integrated fluorescence of DAF-FM DA, NO level) (WT in PBS + Ca (no red light), Time 9.09 (minutes)): 85.40
- Intensity (integrated fluorescence of DAF-FM DA, NO level) (WT in PBS + Ca (no red light), Time 28.63 (minutes)): 92.76
- Intensity (integrated fluorescence of DAF-FM DA, NO level) (WT in PBS + Ca (no red light), Time 75.14 (minutes)): 100.20
- Intensity (integrated fluorescence of DAF-FM DA, NO level) (WT in PBS + Ca (no red light), Time 307.24 (minutes)): 191.01
- Intensity (integrated fluorescence of DAF-FM DA, NO level) (WT in PBS + Ca (no red light), Time 319.44 (minutes)): 198.35
- Intensity (integrated fluorescence of DAF-FM DA, NO level) (WT in PBS + Ca (no red light), Time 431.58 (minutes)): 271.80
- Intensity (integrated fluorescence of DAF-FM DA, NO level) (WT in PBS + Ca (no red light), Time 460.95 (minutes)): 276.75
- Intensity (integrated fluorescence of DAF-FM DA, NO level) (WT in PBS + Ca (no red light), Time 770.49 (minutes)): 489.70
- Intensity (integrated fluorescence of DAF-FM DA, NO level) (WT in PBS + Ca (no red light), Time 799.74 (minutes)): 509.28
- Intensity (integrated fluorescence of DAF-FM DA, NO level) (WT in PBS + Ca + RL15, Time 9.09 (minutes)): 85.40
- Intensity (integrated fluorescence of DAF-FM DA, NO level) (WT in PBS + Ca + RL15, Time 28.61 (minutes)): 95.20
- Intensity (integrated fluorescence of DAF-FM DA, NO level) (WT in PBS + Ca + RL15, Time 70.2 (minutes)): 105.06
- Intensity (integrated fluorescence of DAF-FM DA, NO level) (WT in PBS + Ca + RL15, Time 307.22 (minutes)): 193.44
- Intensity (integrated fluorescence of DAF-FM DA, NO level) (WT in PBS + Ca + RL15, Time 316.95 (minutes)): 203.22
- Intensity (integrated fluorescence of DAF-FM DA, NO level) (WT in PBS + Ca + RL15, Time 428.93 (minutes)): 296.18
- Intensity (integrated fluorescence of DAF-FM DA, NO level) (WT in PBS + Ca + RL15, Time 460.74 (minutes)): 303.57
- Intensity (integrated fluorescence of DAF-FM DA, NO level) (WT in PBS + Ca + RL15, Time 765.45 (minutes)): 506.76
- Intensity (integrated fluorescence of DAF-FM DA, NO level) (WT in PBS + Ca + RL15, Time 799.54 (minutes)): 533.67
- Intensity (integrated fluorescence of DAF-FM DA, NO level) (WT in PBS + Ca + RL30, Time 11.6 (minutes)): 68.33
- Intensity (integrated fluorescence of DAF-FM DA, NO level) (WT in PBS + Ca + RL30, Time 33.6 (minutes)): 75.70
- Intensity (integrated fluorescence of DAF-FM DA, NO level) (WT in PBS + Ca + RL30, Time 72.9 (minutes)): 73.36
- Intensity (integrated fluorescence of DAF-FM DA, NO level) (WT in PBS + Ca + RL30, Time 308 (minutes)): 83.69
- Intensity (integrated fluorescence of DAF-FM DA, NO level) (WT in PBS + Ca + RL30, Time 320.3 (minutes)): 86.16
- Intensity (integrated fluorescence of DAF-FM DA, NO level) (WT in PBS + Ca + RL30, Time 427 (minutes)): 237.64
- Intensity (integrated fluorescence of DAF-FM DA, NO level) (WT in PBS + Ca + RL30, Time 466 (minutes)): 240.17
- Intensity (integrated fluorescence of DAF-FM DA, NO level) (WT in PBS + Ca + RL30, Time 770.9 (minutes)): 462.87
- Intensity (integrated fluorescence of DAF-FM DA, NO level) (WT in PBS + Ca + RL30, Time 799.9 (minutes)): 494.65
- Intensity (integrated fluorescence of DAF-FM DA, NO level) (WT in PBS + Ca + RL60, Time 11.52 (minutes)): 87.84
- Intensity (integrated fluorescence of DAF-FM DA, NO level) (WT in PBS + Ca + RL60, Time 33.54 (minutes)): 92.78
- Intensity (integrated fluorescence of DAF-FM DA, NO level) (WT in PBS + Ca + RL60, Time 72.65 (minutes)): 105.07
- Intensity (integrated fluorescence of DAF-FM DA, NO level) (WT in PBS + Ca + RL60, Time 307.26 (minutes)): 188.57
- Intensity (integrated fluorescence of DAF-FM DA, NO level) (WT in PBS + Ca + RL60, Time 319.42 (minutes)): 200.79
- Intensity (integrated fluorescence of DAF-FM DA, NO level) (WT in PBS + Ca + RL60, Time 429.53 (minutes)): 223.01
- Intensity (integrated fluorescence of DAF-FM DA, NO level) (WT in PBS + Ca + RL60, Time 463.82 (minutes)): 225.53
- Intensity (integrated fluorescence of DAF-FM DA, NO level) (WT in PBS + Ca + RL60, Time 768.4 (minutes)): 445.79
- Intensity (integrated fluorescence of DAF-FM DA, NO level) (WT in PBS + Ca + RL60, Time 799.9 (minutes)): 480.01
- DAF-FM DA NO profile (ionic calcium wells, over the entire 800 minutes): continued to increase

— patent US11103528B1, “Slow release calcium composition” (Government of the United States, as represented by the …, priority 2019, dated 2021)
